Experimental data taken from article PMC6458983 (Cancer Chemotherapy and Pharmacology, 2019).
Marks after values point to notes of the source that are not given here.

Experiments:
[1] = test system: Japanese patients with NSCLC; assay: Multivariate logistic regression of ILD with gefitinib exposure and other risk factors; format: in vivo; conditions: for OR estimate (95% CI) for acute ILD: Age (≥55 vs <55 years): gefitinib-treated patients
Experimental: Patients with and without ILD, in whom pharmacokinetic measurements were available, were included in this analysis. […] A multivariate logistic regression model was used in this analysis; the analysis was performed using SAS version 9.3. […] In addition, the interaction of smoking history and normal lung coverage, and the interaction of the severity of pre-existing ILD and normal lung coverage were also studied. In addition, pharmacokinetic exposure parameters were divided into four quartiles (see “Results”) and investigated as risk factors. For association with ILD risk, the mid-1, mid-2, and high-exposure groups were compared with the low-exposure group.

CYP3A4 = conditions: in vitro and in vivo studies; cited from earlier work
[2] = Analysis 1 (PK parameter AUC0–24, single dose)
[3] = Analysis 1, gefitinib exposure after a single dose
[4] = Analysis 2 (PK parameter AUC0–24,ss)
[5] = Analysis 2, gefitinib exposure at steady state
[6] = Analysis 3 (PK parameter Cmax, single dose)
[7] = Analysis 3, gefitinib exposure after a single dose
[8] = Analysis 4 (PK parameter Cmax,ss)
[9] = Analysis 4, gefitinib exposure at steady state

COc1cc2ncnc(Nc3ccc(F)c(Cl)c3)c2cc1OCCCN1CCOCC1 [gefitinib]
OR estimate (95% CI) for acute ILD: Interaction of smoking history and normal lung coverage [1, 2]: 0.6 (0.09–4.12) | OR estimate (95% CI) for acute ILD: Normal lung coverage (10%–50% vs 60%–100%) [1, 2]: 3.39 (0.63–18.31) | OR estimate (95% CI) for acute ILD: Pre-existing IP (yes vs no) [1, 2]: 4.01 (0.37–43.22) | OR estimate (95% CI) for acute ILD: WHO performance status 1 vs 0 [1, 2]: 0.59 (0.2–1.68) | OR estimate (95% CI) for acute ILD: WHO performance status 2–3 vs 0 [1, 2]: 1.75 (0.48–6.33) | OR estimate (95% CI) for acute ILD: Age (≥55 vs <55 years) [1, 2]: 1.86 (0.5–6.88) | OR estimate (95% CI) for acute ILD: AUC0–24 Quartile 2 vs Quartile 1 [1, 3]: 0.68 (0.2–2.32) | OR estimate (95% CI) for acute ILD: AUC0–24 Quartile 3 vs Quartile 1 [1, 3]: 0.62 (0.18–2.12) | OR estimate (95% CI) for acute ILD: AUC0–24 Quartile 4 vs Quartile 1 [1, 3]: 3.35 (1.14–9.88) | OR estimate (95% CI) for acute ILD: Duration of NSCLC ≥1 vs <0.5 years [1, 4]: 0.57 (0.19–1.69) | OR estimate (95% CI) for acute ILD: Interaction of pre-existing IP and normal lung coverage [1, 4]: 0.25 (0.01–6.8) | OR estimate (95% CI) for acute ILD: Interaction of smoking history and normal lung coverage [1, 4]: 0.14 (0.01–1.52) | OR estimate (95% CI) for acute ILD: Pre-existing IP (yes vs no) [1, 4]: 4.49 (0.33–60.44) | OR estimate (95% CI) for acute ILD: WHO performance status 1 vs 0 [1, 4]: 0.55 (0.19–1.62) | OR estimate (95% CI) for acute ILD: WHO performance status 2–3 vs 0 [1, 4]: 1.37 (0.35–5.39) | OR estimate (95% CI) for acute ILD: Age (≥55 vs <55 years) [1, 4]: 1.54 (0.36–6.6) | OR estimate (95% CI) for acute ILD: Normal lung coverage (10%–50% vs 60%–100%) ([1]; Analysis 2 (PK parameter AUC0–24,ss), p<0.05): 9.47 (1.14–78.84)* | OR estimate (95% CI) for acute ILD: AUC0–24,ss Quartile 2 vs Quartile 1 [1, 5]: 1.2 (0.27–5.32) | OR estimate (95% CI) for acute ILD: AUC0–24,ss Quartile 3 vs Quartile 1 [1, 5]: 1.71 (0.42–6.94) | OR estimate (95% CI) for acute ILD: AUC0–24,ss Quartile 4 vs Quartile 1 [1, 5]: 2.09 (0.5–8.74) | OR estimate (95% CI) for acute ILD: Duration of NSCLC ≥1 vs <0.5 years [1, 6]: 0.32 (0.12–0.83) | OR estimate (95% CI) for acute ILD: Interaction of pre-existing IP and normal lung coverage [1, 6]: 0.51 (0.03–9.56) | OR estimate (95% CI) for acute ILD: Interaction of smoking history and normal lung coverage [1, 6]: 0.56 (0.08–3.96) | OR estimate (95% CI) for acute ILD: Normal lung coverage (10%–50% vs 60%–100%) [1, 6]: 3.56 (0.64–19.85) | OR estimate (95% CI) for acute ILD: Pre-existing IP (yes vs no) [1, 6]: 3.56 (0.33–38.74) | OR estimate (95% CI) for acute ILD: WHO performance status 1 vs 0 [1, 6]: 0.62 (0.21–1.8) | OR estimate (95% CI) for acute ILD: WHO performance status 2–3 vs 0 [1, 6]: 1.89 (0.52–6.85) | OR estimate (95% CI) for acute ILD: Age (≥55 vs <55 years) [1, 6]: 2.13 (0.56–8.04) | OR estimate (95% CI) for acute ILD: Cmax Quartile 2 vs Quartile 1 [1, 7]: 0.51 (0.14–1.8) | OR estimate (95% CI) for acute ILD: Cmax Quartile 3 vs Quartile 1 [1, 7]: 0.5 (0.14–1.72) | OR estimate (95% CI) for acute ILD: Cmax Quartile 4 vs Quartile 1 [1, 7]: 3.03 (1–9.17) | OR estimate (95% CI) for acute ILD: Duration of NSCLC ≥1 vs <0.5 years [1, 8]: 0.59 (0.2–1.75) | OR estimate (95% CI) for acute ILD: Interaction of pre-existing IP and normal lung coverage [1, 8]: 0.18 (0.01–4.98) | OR estimate (95% CI) for acute ILD: Interaction of smoking history and normal lung coverage [1, 8]: 0.17 (0.02–1.89) | OR estimate (95% CI) for acute ILD: Pre-existing IP (yes vs no) [1, 8]: 5.21 (0.39–70.35) | OR estimate (95% CI) for acute ILD: WHO performance status 1 vs 0 [1, 8]: 0.57 (0.19–1.68) | OR estimate (95% CI) for acute ILD: WHO performance status 2–3 vs 0 [1, 8]: 1.34 (0.33–5.39) | OR estimate (95% CI) for acute ILD: Age (≥55 vs <55 years) [1, 8]: 1.69 (0.4–7.17) | OR estimate (95% CI) for acute ILD: Normal lung coverage (10%–50% vs 60%–100%) ([1]; Analysis 4 (PK parameter Cmax,ss), p<0.05): 9.4 (1.11–79.48)* | OR estimate (95% CI) for acute ILD: Cmax,ss Quartile 2 vs Quartile 1 [1, 9]: 0.69 (0.16–3.02) | OR estimate (95% CI) for acute ILD: Cmax,ss Quartile 3 vs Quartile 1 [1, 9]: 1.72 (0.47–6.27) | OR estimate (95% CI) for acute ILD: Cmax,ss Quartile 4 vs Quartile 1 [1, 9]: 1.07 (0.27–4.29) | enzyme involved in the metabolic clearance (CYP3A4): CYP3A4 is the major enzyme
